# Experimental data published in publication PMC6266276 (Viruses, 2018).
# Values joined by “and” are separate entries in the source; they are usually repeats but may differ in a detail not shown here. Identical values can stand only once. “Also recorded” adds a separate entry of the source. Like-named read-outs stand apart in the source and are kept apart here.
# Experiments:
# [1] = in vitro; settings: African green monkey
# [2] = tested on: porcine epidemic diarrhea virus (PEDV); assay: microbe, parasite or virus in culture; type: cell-based, porcine epidemic diarrhea virus (PEDV) strain CV777; settings: for IC50: Porcine epidemic diarrhea virus, Vero, read-out: IC50, half maximal inhibitory concentration
# [3] = tested on: phosphorylated eIF4E (p-eIF4E); type: cell-based
# [4] = tested on: mouse hepatitis coronavirus (MHV); settings: HHT at 125 nM ref 53; cited from earlier work
# [5] = tested on: HeLa cells
# [6] = mouse, in vivo
# [7] = tested on: HEK293T cells
# [8] = tested on: hepatitis B virus (HBV); settings: HHT at concentrations below 2 µM ref 52; cited from earlier work
# [9] = tested on: chikungunya virus; settings: HHT at 1 µM ref 38; cited from earlier work
# [10] = tested on: pseudorabies virus (PRV); type: cell-based, pseudorabies virus (PRV) strain Fa
# [11] = chicken, in vivo
# [12] = tested on: herpes simplex virus type 1 (HSV-1); assay: microbe, parasite or virus in culture; type: cell-based, herpes simplex virus type 1 (HSV-1) strain F
# [13] = tested on: Vero cells
# [14] = pig, in vivo
# [15] = tested on: Newcastle disease virus (NDV); parameters: species or system Newcastle disease virus (NDV) strain NA-1; settings: in vivo
# [16] = tested on: porcine epidemic diarrhea virus (PEDV); parameters: species or system porcine epidemic diarrhea virus (PEDV) strain CV777; settings: pig, in vivo
# [17] = in vitro; settings: human
# [18] = tested on: vesicular stomatitis virus (VSV); type: cell-based, vesicular stomatitis virus (VSV) strain Indiana
# [19] = tested on: Newcastle disease virus (NDV); assay: microbe, parasite or virus in culture; type: cell-based, Newcastle disease virus (NDV) strain NA-1; settings: for IC50: read-out: IC50, half maximal inhibitory concentration
# [20] = tested on: Newcastle disease virus (NDV); parameters: species or system Newcastle disease virus (NDV) strain NA-1; settings: in vivo, 0.2 mg/kg
# [21] = tested on: avian influenza virus (AIV); parameters: species or system avian influenza virus (AIV) strain H9-WD; settings: in vivo
# [22] = tested on: acute myeloid leukemia; settings: mice, HHT 1.0 mg/kg ref 26; cited from earlier work
# [23] = tested on: bovine viral diarrhea virus (BVDV); settings: HHT at concentrations below 2 µM ref 52; cited from earlier work
# [24] = tested on: VSV; settings: cited from earlier work
compound,measurement,setting,value
O=c1c(O)c(-c2ccc(O)c(O)c2)oc2cc(O)cc(O)c12 [Quercetin],CC50,[1],> 1000 µM
same,"SI, Selectivity index = CC50/IC50",[2],>145
same,IC50,[2],6.9 µM
Nc1ncnc2n[nH]c(Nc3ccc(F)cc3)c12 [CGP57380],cellular total eIF4E level,[3],without an effect on total eIF4E protein level
same,p-eIF4E levels,[3],prevent the phosphorylation of eIF4E
"COC(=O)C[C@](O)(CCCC(C)(C)O)C(=O)O[C@@H]1C(OC)=C[C@]23CCCN2CCc2cc4c(cc2[C@H]13)OCO4 [HHT, homoharringtonine]",inhibition of MHV in vitro,[4],high-magnitude inhibition
same,cell viability,[5],No measurable decrease in cell viability
same,inflammatory reaction in lung,[6],No obvious inflammatory reaction
same,cell viability,[7],no measurable decrease in cell viability
same,antiviral efficacy on HBV DNA levels,[8],no protective effects
same,inhibition of viral yield,[9],2–3 orders of magnitude
same,PRV-gC level,[10],strong reduction
same,viral replication,[10],strong reduction in viral replication
same,CC50,[1],5.58 µM
same,50% toxicity dose,[11],0.4 mg/kg
same,HSV-ICP8 level,[12],strong reduction
same,"SI, Selectivity index = CC50/IC50",[12],40
same,viral replication,[12],strong reduction in viral replication
same,IC50,"[12]; Human alphaherpesvirus 1, Vero, read-out: IC50, half maximal inhibitory concentration",0.139 µM
same,accumulation of Mcl-1,[3],gradually reduced
same,cellular total eIF4E level,[3],unaffected
same,p-eIF4E induced by ectopic expression of wild-type eIF4E,[3],decreased the accumulation of p-eIF4E
same,p-eIF4E levels,[3],gradually reduced
same,"p-eIF4E levels induced by viral infection, in parallel with viral protein",[3],gradually reduced
same,cell viability,[13],No measurable decrease in cell viability
same,50% toxicity dose,[14],0.2 mg/kg
same,animals for which side effects were fatal,[14]; 0.2 mg/kg,about 50%
same,effect on viral infection in chicken embryos,[15],slight effect; also recorded: completely inhibited viral infection
same,reduction of HAU values,[15],one and three
same,inhibitory activity and death,[16],optimal inhibitory activity without death
same,pathological change in tissues and symptoms,[16]; 0.05 mg/kg,survived without pathogenic changes in tissues and symptoms
same,mRNA levels of PEDV-N in blood,[16]; 0.05 mg/kg/day,greatly decreaseed
same,mRNA levels of PEDV-N in the intestine,[16]; 0.05 mg/kg/day,greatly decreaseed
same,CC50,[17],1.92 µM
same,"VSV-G levels, time-of-addition",[18],strong reductions
same,"inhibitory effect against viral infection, pre-treatment",[18],minimal inhibitory effect
same,"reduction of the viral yields, co-/post-treatment",[18],complete reduction
same,reduction of viral yields,[18],1.5 orders of magnitude
same,viral protein G levels of VSV (VSV-G),[18],strong reduction
same,viral reduction,[18],6.5 orders of magnitude and 5 orders of magnitude
same,viral yields,[18],dramatically reduced
same,NDV-NP level,[19],strong reduction
same,"SI, Selectivity index = CC50/IC50",[19],107
same,concentration that completely inhibited infection,[19],100 nM
same,morphology and number of HeLa cells compared to mock infected sample,[19],no difference in morphology and number
same,production of recombinant NDV expressing GFP,[19],greatly reduced
same,IC90,"[19]; avian paramyxovirus 1, HeLa, 24 h",0.04 µM
same,IC50,"[19]; avian paramyxovirus 1, HeLa",0.018 µM
same,"PEDV-N levels, time-of-addition",[2],strong reductions
same,PEDV-N protein and mRNA levels,[2],strong reduction
same,"SI, Selectivity index = CC50/IC50",[2],50
same,concentration that completely inhibited infection,[2],500 nM
same,"infection rate, time-of-addition",[2],less than 30%
same,reduction of viral yields,[2],1.9 orders of magnitude
same,viral yields,[2],completely suppressed
same,IC50,[2],0.112 µM
same,mRNA level of NDV-NP in blood,[20],significantly decreased
same,mRNA level of NDV-NP in the liver and lung,[20],significantly decreased
same,pathological change in tissues and symptoms,[20],did not exhibit a pathological change in tissues or symptoms; also recorded: survived without pathogenic changes in tissues and symptoms
same,lung inflammation,[21],decreased local inflammatory reaction but aggravated overall inflammation; also recorded: moderately attenuated inflammation
same,number of AIV positive cells in lung,[21],No obvious reduction
same,acute myeloid leukemia in vivo,[22],completely eradicate acute myeloid leukemia
same,antiviral efficacy on BVDV infection,[23],no protective effects
NC(=O)c1ncn([C@@H]2O[C@H](CO)[C@@H](O)[C@H]2O)n1 [Ribavirin],CC50,[17],2820 µM
same,concentrations at which antiviral activity was displayed,[18],over 100 µM
same,"SI, Selectivity index = CC50/IC50",[19],64
same,IC50,"[19]; avian paramyxovirus 1, HeLa",44.2 µM
same,inhibition of VSV titer in cells,[24],2.5 orders of magnitude
